Data published in publication PMC5607274, “An iterative compound screening contest method for identifying target protein inhibitors using the tyrosine-protein kinase Yes” (Scientific Reports, 2017).

Target: T1, human recombinant Yes [a.a. 2–543 (end)] (Homo sapiens, UniProt P07947)
T1 construct: human recombinant Yes [a.a; 2–543 (end)]; purchased BPS Bioscience 40488
Assay: ADP-Glo kinase assay, inhibition rates of Yes phosphorylation activity (first and second screening)
Format: biochemical
Details: 10 μmol L−1 compound; for First screening IR (inhibition rate): mean of n = 4 wells; for Second screening IR (inhibition rate): dissolved from fresh powder, n = 4
Procedure, shortened: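 Hits from a first pass were rescreened after re-dissolution from fresh powder. The first pass reported the mean inhibition rate of quadruplicate wells per compound. Activity was that of recombinant human Yes [a.a. 2–543] kinase, read out with the ADP-Glo ADP-detection method.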

T1 sequence (P07947 2-543): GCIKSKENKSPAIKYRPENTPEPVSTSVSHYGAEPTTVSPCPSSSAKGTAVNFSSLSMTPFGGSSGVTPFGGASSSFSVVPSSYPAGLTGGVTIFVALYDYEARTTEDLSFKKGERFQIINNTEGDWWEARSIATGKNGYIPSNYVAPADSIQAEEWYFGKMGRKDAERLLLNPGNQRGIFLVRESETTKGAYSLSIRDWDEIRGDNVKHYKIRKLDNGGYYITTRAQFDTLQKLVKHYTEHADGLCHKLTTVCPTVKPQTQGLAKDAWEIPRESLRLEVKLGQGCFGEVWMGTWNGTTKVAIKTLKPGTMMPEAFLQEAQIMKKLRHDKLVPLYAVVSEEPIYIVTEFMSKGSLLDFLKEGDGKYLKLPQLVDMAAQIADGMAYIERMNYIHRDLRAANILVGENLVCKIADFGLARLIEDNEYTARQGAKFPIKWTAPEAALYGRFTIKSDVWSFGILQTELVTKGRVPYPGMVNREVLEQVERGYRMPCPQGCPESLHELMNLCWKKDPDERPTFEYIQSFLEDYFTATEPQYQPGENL

## CCc1ccc(/C=C2/CN(C)Cc3c2nc2ccccc2c3C(=O)O)cc1 [Compound Z46114754]
  First screening IR (inhibition rate): 0%

## COc1cc(/C=C2/CC(C)Cc3c2nc2ccccc2c3C(=O)O)cc(Cl)c1O (stereo not shown) [Compound Z46108144]
  First screening IR (inhibition rate): 3%

## C=CCN(CC(=O)Nc1ccc(S(=O)(=O)N(CC)CC)cc1)Cc1cccs1 [Compound Z89203975]
  First screening IR (inhibition rate): 16%

## CN(CC(=O)NCc1ccco1)C(=O)/C=C/c1ccc(-n2ccnc2)cc1 [Compound Z62804747]
  First screening IR (inhibition rate): 2%

## Cc1oc2cc(OCC(=O)N(C)C3CCS(=O)(=O)C3)ccc2c(=O)c1-c1c(F)cccc1Cl (stereo not shown) [Compound Z25645184]
  First screening IR (inhibition rate): -1%

## N#Cc1ccc(C(=O)OCc2ccc(Br)cn2)[nH]1 [Compound Z1616590793]
  First screening IR (inhibition rate): 9%

## CC(=O)N1CC=C(c2ccc(Oc3nc(-c4cccnc4)nc4ccccc34)cc2)CC1 [Compound Z196157908]
  First screening IR (inhibition rate): -13%

## Cc1cc(Br)ccc1SCC(=O)OC/C(O)=C(\C#N)c1nc2ccccc2[nH]1 [Compound Z18738204]
  First screening IR (inhibition rate): 43%

## O=C(Nc1cccc(S(=O)(=O)NC2=NCCCCC2)c1)C1(c2cccc(Cl)c2)CC1 [Compound Z316438002]
  First screening IR (inhibition rate): 23%

## C/C(=C\C(=O)N1CCN(c2cnccn2)CC1)C12CC3CC(CC(C3)C1)C2 [Compound Z850748812]
  First screening IR (inhibition rate): 12%

## Cc1ccc(S(C)(=O)=O)cc1S(N)(=O)=O [Compound Z385450636]
  First screening IR (inhibition rate): 26%

## COc1ccc(CCn2c(N)c(C(=O)NCc3ccc4c(c3)OCO4)c3nc4ccccc4nc32)cc1OC [Compound Z56872869]
  First screening IR (inhibition rate): 34%
  Second screening IR (inhibition rate): -24%

## NS(=O)(=O)c1cccc(S(=O)(=O)N2CCCCC2)c1 [Compound Z237744790]
  First screening IR (inhibition rate): -8%

## CC(Sc1n[nH]c(-c2cccs2)n1)c1nc2ccccc2c(=O)[nH]1 (stereo not shown) [Compound Z19451548]
  First screening IR (inhibition rate): 2%

## Cl.Oc1ccc(-c2cc(-c3ccccc3)c3cc(Cl)ccc3n2)cc1 [Compound Z48950817]
  First screening IR (inhibition rate): 51%
  Second screening IR (inhibition rate): -2%

## COC(=O)Cn1ncc2c(N3CCCCC3CCC(C)C)ncnc21 (stereo not shown) [Compound Z1419966801]
  First screening IR (inhibition rate): 1%

## Cc1cc(S(C)(=O)=O)c(C)c(S(=O)(=O)N2CCCCCC2)c1 [Compound Z1145185709]
  First screening IR (inhibition rate): 6%

## CC(C)C(C)NC(=O)C1CCN(Cc2ccc(C#N)cc2)CC1 (stereo not shown) [Compound Z975048678]
  First screening IR (inhibition rate): 5%

## Cc1ncc(C(=O)NC(C)c2cccc(NC(=O)c3ccccc3)c2)[nH]1 (stereo not shown) [Compound Z1171689075]
  First screening IR (inhibition rate): -17%

## CC(Sc1n[nH]c(-c2ccccc2)n1)C(=O)c1c[nH]c2ccccc12 (stereo not shown) [Compound Z25398193]
  First screening IR (inhibition rate): 49%

## NC(=O)N1CCC(C(=O)N2CCCC2CC2CC3CCC2C3)CC1 (stereo not shown) [Compound Z1038829842]
  First screening IR (inhibition rate): 2%

## CCOc1ccc(C(=O)Nc2ccc3c(c2)C(=O)NC3)cc1OCC [Compound Z943285536]
  First screening IR (inhibition rate): 18%

## O=C1Nc2ccccc2/C1=C\c1ccc(O)cc1 [Compound Z44305789]
  First screening IR (inhibition rate): 25%

## Cc1cc(-c2ccccc2)nc(SC(C)C(=O)Nc2sc3c(c2C(N)=O)CCC3)n1 (stereo not shown) [Compound Z114120486]
  First screening IR (inhibition rate): -3%

## COc1ccc(NC(=O)C(=O)c2c(C)nn(-c3ccccc3)c2C)cc1OCc1cn2ccccc2n1 [Compound Z605682156]
  First screening IR (inhibition rate): -5%

## O=C(CSc1ccc(S(=O)(=O)N2CCCC2)cn1)c1ccc2c(c1)OCO2 [Compound Z335869204]
  First screening IR (inhibition rate): 12%

## CNc1snc(C)c1C(=O)OCc1csc(-c2ccc(F)cc2)n1 [Compound Z166256344]
  First screening IR (inhibition rate): -7%

## O=P(/C=C(\Cl)c1ccccc1)(/C=C(/Cl)c1ccccc1)Nc1cccc(S(=O)(=O)NCc2ccco2)c1 [Compound Z56773378]
  First screening IR (inhibition rate): -1%

## Cc1ccc(O)c(-c2cc(-c3ccccc3)c3cc(Cl)ccc3n2)c1.Cl [Compound Z48950854]
  First screening IR (inhibition rate): -11%

## CS(=O)(=O)c1ccccc1S(=O)(=O)N1CCCC1 [Compound Z285664942]
  First screening IR (inhibition rate): -3%

## O=C(NCCNc1ncc(C(F)(F)F)cc1Cl)c1ccc2nc[nH]c2c1 [Compound Z101998542]
  First screening IR (inhibition rate): 25%

## CCSc1cncc(N2CCC(C(=O)NC(C)C(C)C)CC2)n1 (stereo not shown) [Compound Z1168201963]
  First screening IR (inhibition rate): 4%

## Cn1c(=O)c2ccc(C(=O)NCc3cc(Cl)ccn3)nc2n(C)c1=O [Compound Z1574547064]
  First screening IR (inhibition rate): -2%

## O=C(Nc1c[nH]ccc1=O)c1ccc2c(c1)CC(c1ccccc1)OC2=O (stereo not shown) [Compound Z649184702]
  First screening IR (inhibition rate): -7%

## Cc1ccc(S(=O)(=O)NC(=O)c2cc(C)n(CCCn3ccnc3)c2C)cc1 [Compound Z55892329]
  First screening IR (inhibition rate): -11%

## Cc1oc(-n2cccc2)c(C#N)c1C(=O)Nc1cccc(/C=C/c2ccccn2)c1 [Compound Z89489183]
  First screening IR (inhibition rate): 9%

## Cn1cc(NC(=O)C2(c3cccc(C(F)(F)F)c3)CC2)cn1 [Compound Z1068296272]
  First screening IR (inhibition rate): 25%

## COc1ccc2c(C)cc(N/N=C/c3ccncc3)nc2c1 [Compound Z50018323]
  First screening IR (inhibition rate): 3%

## O=S1(=O)CCC(S(=O)(=O)c2ccccc2)C1 (stereo not shown) [Compound Z57056479]
  First screening IR (inhibition rate): 4%

## O=S1(=O)CCC(S(=O)(=O)Cl)C1 (stereo not shown) [Compound Z57163399]
  First screening IR (inhibition rate): -7%

## CNC(=O)c1cnc(/C=C/c2cccnc2)s1 [Compound Z1029489284]
  First screening IR (inhibition rate): 5%

## CC(C)n1ncc2c(C(=O)O)cc(-c3ccccc3F)nc21 [Compound Z56643534]
  First screening IR (inhibition rate): -8%

## CSc1ccc(C(C)N2CCCC(C(=O)N3CCOCC3)C2)cc1F (stereo not shown) [Compound Z1742902065]
  First screening IR (inhibition rate): 26%

## CN(C)c1nc(N)nc(CSCCOc2ccccc2F)n1 [Compound Z197453168]
  First screening IR (inhibition rate): 9%

## CCn1ncc2c(C(=O)OCC#N)cc(-c3cccs3)nc21 [Compound Z227189870]
  First screening IR (inhibition rate): 2%

## CC(C)C(NC(=O)c1ccc(S(=O)(=O)N(C)C)cc1)c1ccc2c(c1)OCCCO2 (stereo not shown) [Compound Z91218489]
  First screening IR (inhibition rate): 5%

## COCCCn1c(=O)c2ccccc2n2c(SCc3cn4ccccc4n3)nnc12 [Compound Z17893104]
  First screening IR (inhibition rate): -35%

## COc1ccc(/C=N/Nc2ccnc3cc(Cl)ccc23)cc1O [Compound Z49625943]
  First screening IR (inhibition rate): 26%
  Second screening IR (inhibition rate): -17%

## COc1cc(C(=O)OC(C)C(=O)NC(C)(C#N)C(C)C)ccc1Oc1ccc(Cl)cc1[N+](=O)[O-] (stereo not shown) [Compound Z18025700]
  First screening IR (inhibition rate): 1%

## CN1CCCN(c2nc(C(F)(F)F)nc3c2cnn3Cc2ccccc2)CC1 [Compound Z359311942]
  First screening IR (inhibition rate): -23%

## Cc1nn(CC(C)C)c2sc(C(=O)N3c4ccccc4C[C@H]3C(N)=O)cc12 [Compound Z996487836]
  First screening IR (inhibition rate): 1%

## CC1CCC(C(C)C)C(OC(=O)CSc2ncnc3ccccc23)C1 (stereo not shown) [Compound Z19316042]
  First screening IR (inhibition rate): 0%

## O=C(Nc1n[nH]c(-c2ccc(F)cc2)n1)c1ccccc1F [Compound Z108549754]
  First screening IR (inhibition rate): -11%

## CC(C)c1ccc(SCc2nc(N)nc(N(C)C)n2)cc1 [Compound Z290622280]
  First screening IR (inhibition rate): 4%

## Cc1cccc(CS(=O)(=O)CCS(C)(=O)=O)c1 [Compound Z822335078]
  First screening IR (inhibition rate): -2%

## CN(C)c1nccc(N2CCN(Cc3ccc(Cl)o3)CC2)n1 [Compound Z1569249080]
  First screening IR (inhibition rate): 27%

## CC1(C)CCCN(S(=O)(=O)CCCS(C)(=O)=O)CC1 [Compound Z1271277951]
  First screening IR (inhibition rate): -3%

## CCC(NC(=O)c1cc(C)nc2c1cnn2C(C)C)c1ccc(C)cc1 (stereo not shown) [Compound Z203056244]
  First screening IR (inhibition rate): -5%

## CCN(c1ccc(-c2csc(Nc3ccc(OC)cc3)n2)cc1)S(C)(=O)=O [Compound Z64779311]
  First screening IR (inhibition rate): -4%

## Cn1c(CNS(=O)(=O)c2ccc(C(F)(F)F)cc2)nc2ccccc21 [Compound Z90694917]
  First screening IR (inhibition rate): -18%

## CN(Cc1ccccc1Cl)S(=O)(=O)c1ccccc1S(C)(=O)=O [Compound Z285666434]
  First screening IR (inhibition rate): -2%

## CN(C1CCS(=O)(=O)C1)S(=O)(=O)c1ccc(Cl)c(Cl)c1 (stereo not shown) [Compound Z71311982]
  First screening IR (inhibition rate): -2%

## CC(CCc1ccc(O)cc1)NC(=O)Nc1ccc(NC(=O)c2ccco2)cc1 (stereo not shown) [Compound Z412774176]
  First screening IR (inhibition rate): -12%

## CN(CC(=O)N1N=C(c2ccco2)CC1c1cccs1)Cc1nc2ccccc2c(=O)[nH]1 (stereo not shown) [Compound Z52671252]
  First screening IR (inhibition rate): -3%

## CC(C)S(=O)(=O)CCS(=O)(=O)CC1CCCCC1 [Compound Z1347351162]
  First screening IR (inhibition rate): -3%

## CCN1CCN(Cc2ccc(NC(=O)C3CCCN3C(=O)c3ccc4ccccc4c3O)cc2)CC1 (stereo not shown) [Compound Z992207680]
  First screening IR (inhibition rate): 51%

## CCCCc1ccc(NC(=S)N2CC3(C)CC2CC(C)(C)C3)cc1 (stereo not shown) [Compound Z45795780]
  First screening IR (inhibition rate): -6%

## O=C(NCCc1c[nH]c2cc(F)ccc12)c1cnc(-c2ccccc2)nc1 [Compound Z960870544]
  First screening IR (inhibition rate): 43%

## CCN(CC(C)C)c1ccc(S(C)(=O)=O)cc1S(C)(=O)=O [Compound Z666139280]
  First screening IR (inhibition rate): 7%

## O=S1(=O)CCC(CNS(=O)(=O)c2c[nH]c3nccc(Cl)c23)C1 (stereo not shown) [Compound Z1547285504]
  First screening IR (inhibition rate): -14%
